Values quoted from earlier work as cited in US20210308204A1, “FORMULATIONS CONTAINING LIPOPHILIC EXTRACTS OF SPICY EDIBLE PLANTS USEFUL IN CONTROLLING PAIN AND INFLAMMATION” (priority 2018, published 2021).

Conditions: in vivo, po

C/C1=C\CC/C(C)=C/C[C@](O)(C(C)C)CC/C(C)=C/CC1 [serratol]
tmax: about 15 minutes
